What was measured:
Format in all cases: cell-based
[1] = test system: Mouse embryonic fibroblasts; assay: Bioassay 1: cellular senescence of mouse embryonic fibroblasts; details: for up regulation of β-galactosidase: […] after plating
Description: (§1) Mouse embryonic fibroblasts are isolated from wild type or Moz heterozygous animals and cultured at 3% oxygen/5% carbon dioxide/92% nitrogen. Cells are plated at a density of 1,020 cells/cm^2 or 2,040 cells/cm^2 or 10,204 cells/cm^2. A reference value for MOZ inhibition is generated through comparison with cells with a complete null mutation of MOZ. The absence of a functional Moz gene leads to senescence in 7-14 days at 3% oxygen.
Cells are plated in triplicate cultures at 10,204 cells/cm^2 in the presence of a test compound. Compounds are tested at 500 nM, 1 μM, 2 μM, 5 μM, 10 μM and 20 μM. Control compounds include those that have a similar structure but show no activity in biochemical assays. After 48 hours, cells are passaged and counted, then replated at 10,204/cm^2. This procedure is continued for 336 hours. The total number of cells produced at each passage is then calculated and compared between treatment groups. […] Cells are analysed by flow cytometry for the absence of markers of apoptosis by staining with propidium iodide and FITC-conjugated annexin V. The level of DNA damaged is assessed by γH2A.X staining, a marker of DNA strand breaks.

Cdc6 mRNA = assay: Bioassay 2: RT-qPCR of MOZ target genes in mouse embryonic fibroblasts; details: 5 μM
Description: as §1
Cells are plated in triplicate at 2,040 cells/cm^2 in the presence of a test compound. Compounds are tested at 500 nM, 1 μM, 2 μM, 5 μM, 10 μM and 20 μM. Control compounds include those that have a similar structure but show no activity in biochemical assays. […] RT-qPCR is used to assay the levels of MOZ target genes Ink4a, ink4b, Arf, Cdc6, Cdca8, Cdca2, E2f2, Ezh2, Skp2 and Melk.

[2] = test system: mouse embryonic fibroblasts transfected with control retroviral vector pBABE; assay: Bioassay 4: cumulative cell counts, control vector pBABE; details: 5 μm
Description: To test if cells expressing mutant forms of RAS sensitized to senescence induction, MOZ inhibitors were combined with the ectopic expression of KRASG12V. Cells are plated in triplicate cultures at 10,204 cells/cm2 then transfected with control retroviral vectors pBABE or pBABE containing a mutant KrasG12V expression cassette. Cultures were maintained at 3% O2. Selection for transfected cells is achieved using puromycin. Compounds are tested at 0 μM 1 μM, 2.5 μM, and 5 μM. After 48 hours, cells are passaged and counted, then replated at 10,204/cm2. This procedure is continued for 336 hours. The total number of cells produced at each passage is then calculated and compared between treatment groups. Cellular senescence is determined by cell cycle arrest. Comparisons are between cells treated with vehicle only expressing the control vector, cells treated with 5 μM expressing the control vector (concentration shown in bioassay 1 to produce cellular senescence) and cells treated with 0 uM 1 μM, 2.5 μM, and 5 μM expressing the KrasV12 expressing vector vector

wild type pro-B cells = assay: Bioassay 5: pro-B cell colony formation in methylcellulose, wild type
Description: (§2) Pro-B cells are purified by positive selection using antiCD19-magnetic beads and fluorescence activated cell sorting using the criterion: cell surface expression of B220, CD19 and cKit but not IgM. After purification, 25,000 pro-B cells are seeded onto 3.5 cm culture dishes plate containing methylcellulose (MethoCult M3630, STEM CELL technologies) for 7 days. After 7 days culture, colonies in which there were more than 50 cells are counted. Subsequently, 190,000 pro-B cells are replated into methylcellulose for another 7 days of culture, followed by enumeration.

[3] = test system: Eμ-Myc pre-leukemia pro-B cells; assay: Bioassay 5: pro-B cell colony formation in methylcellulose, Eμ-Myc
Description: as §2

Wild type pre B cells [4] = assay: Bioassay 6: proliferation curves of pre-B cells on OP9 feeder layer, wild type
Source text: (§3) Pre B cells are isolated from bone marrow according to the criterion: cell surface expression of B220, CD19, but not cKit or IgM. Proliferation curves of wild type pre-B cells and Ep-Myc pre-leukemia pre B cells are generated by counting cells cultured on OP9 cell feeder layer in the presence of the growth factor IL-7. Media is changed every two days and cells are passaged every 4 days.

[5] = test system: Eμ-Myc pre-leukemia pre-B cells; assay: Bioassay 6: proliferation curves of pre-B cells on OP9 feeder layer, Eμ-Myc
Source text: as §3

Wild type pre B cells [6] = assay: Bioassay 8: cell cycle analysis (DNA content and Ki67); details: for cells in G0 / cells in G1 / cells in G2/M / cells in S: 1 μM
Description: (§4) Pre B cells are isolated from bone marrow according to the criterion: cell surface expression of B220, CD19, but not cKit or IgM. Pre-B cells are cultured on OP9 cells with IL7 in the presence of compounds at various concentrations. The stages of the cell cycle in cultured pre-B cells with and without treatment is analysed by flow cytometry using a stain for DNA content combined with the cell cycle marker Ki67 to enumerate the proportion of cells in different phases of the cell cycle.

wild type pre-B cells = assay: Bioassay 9: cell cycle analysis (DNA content and BrdU)
Description: as §4, with “in” for “in cultured”, “using” for “by”, “cytometry to assay,” for “cytometry”, “BrdU” for “the cell cycle marker Ki67”, “determine” for “enumerate”, “S phase.” for “different phases of the cell cycle.”

In the case of `Cc1cc(-c2ccccc2)cc(C(=O)NNS(=O)(=O)c2ccccc2)c1F` [Compound 36], the “up regulation of β-galactosidase” value ([1]; 5 μM) is reported as 186%, the “up regulation of β-galactosidase” value ([1]; 10 μM) is reported as 195% and the “up regulation of β-galactosidase” value ([1]; 20 μM) is reported as 185%. For the same compound, the IC50 ([1]; Mus musculus, Fibroblast, read-out: IC50 (dose at which 50% senescence occur), Bioassay 1) was 1.6 µM, the “CDC6 mRNA % control” value (Cdc6 mRNA) was 65.1% and the “Cumulative Cell Counts” value ([2]; 96 h) was 198333.3. The “Cumulative Cell Counts” value ([2]; 336 h) was 226600, the colony number (wild type pro-B cells; 1 μM, wild type pro-B cells, primary colonies) was 161.25 and the “colony number, secondary colony formation” value (wild type pro-B cells; 1 μM, wild type pro-B cells, secondary colony formation) was 12.25. For the same compound, the colony formation (wild type pro-B cells; in words, compared to vehicle) was “greatly inhibits colony formation”, the colony number ([3]; 1 μM, Eμ-Myc pre-leukemia pro-B cells, primary colonies) was 104.625 and the “colony number, secondary colony formation” value ([3]; 1 μM, Eμ-Myc pre-leukemia pro-B cells, secondary colony formation) was 9.75. For the same compound, the “proliferation and secondary colony formation of cells expressing the oncogene cMyc” value ([3]; in words) was “equally effective in inhibiting proliferation and secondary colony formation”, the “cumulative average cell number” value (Wild type pre B cells [4]; 1 μM, Day 4) was 54333 and the “cumulative average cell number” value (Wild type pre B cells [4]; 1 μM, Day 8) was 73474. The “cumulative average cell number” value (Wild type pre B cells [4]; 1 μM, Day 12) was 15097, the “cumulative average cell number” value (Wild type pre B cells [4]; 5 μM, Day 4) was 32555 and the “cumulative average cell number” value (Wild type pre B cells [4]; 5 μM, Day 8) was 19925. The “cumulative average cell number” value (Wild type pre B cells [4]; 5 μM, Day 12) was 0.000, the “cumulative average cell number” value (Wild type pre B cells [4]; 10 μM, Day 4) was 26111 and the “cumulative average cell number” value (Wild type pre B cells [4]; 10 μM, Day 8) was 8192. The “cumulative average cell number” value (Wild type pre B cells [4]; 10 μM, Day 12) was 0.000, the “proliferation of wild type B cell progenitors” value (Wild type pre B cells [4]; in words, compared to vehicle) was “inhibited” and the “cumulative average cell number” value ([5]; 0.2 μM, Day 4) was 373055. The “cumulative average cell number” value ([5]; 0.2 μM, Day 8) was 1110631, the “cumulative average cell number” value ([5]; 0.2 μM, Day 12) was 464403 and the “cumulative average cell number” value ([5]; 0.2 μM, Day 16) was 81501. The “cumulative average cell number” value ([5]; 1 μM, Day 4) was 172777, the “cumulative average cell number” value ([5]; 1 μM, Day 8) was 135815 and the “cumulative average cell number” value ([5]; 1 μM, Day 12) was 29983. The “cumulative average cell number” value ([5]; 1 μM, Day 16) was 0, the “cumulative average cell number” value ([5]; 5 μM, Day 4) was 79444 and the “cumulative average cell number” value ([5]; 5 μM, Day 8) was 33236. For the same compound, the “cumulative average cell number” value ([5]; 5 μM, Day 12) was 0, the “cumulative average cell number” value ([5]; 5 μM, Day 16) was 0 and the “proliferation of pre-leukaemic B cell progenitors” value ([5]; in words, compared to vehicle) was “inhibited”. The “cells in G0” value (Wild type pre B cells [6]; cultured for 4 days) was 14.5%, the “cells in G1” value (Wild type pre B cells [6]; cultured for 4 days) was 55.9% and the “cells in G2/M” value (Wild type pre B cells [6]; cultured for 4 days) was 12.7%. For the same compound, the “cells in S” value (Wild type pre B cells [6]; cultured for 4 days) was 15.6%, the “cells in G0” value (Wild type pre B cells [6]; cultured for 6 days) was 11.0% and the “cells in G1” value (Wild type pre B cells [6]; cultured for 6 days) was 66.6%. The “cells in G2/M” value (Wild type pre B cells [6]; cultured for 6 days) was 9.0%, the “cells in S” value (Wild type pre B cells [6]; cultured for 6 days) was 8.3% and the “number of cells in S phase down-regulated” value (Wild type pre B cells [6]; wild type pre-B cells) was 40%. The “cells in G0/G1 (BrdU)” value (wild type pre-B cells; 1 μM) was 54.9, the “cells in G2/M (BrdU)” value (wild type pre-B cells; 1 μM) was 5.5 and the “cells in S (BrdU)” value (wild type pre-B cells; 1 μM) was 32.7. The “cells in G0/G1” value (wild type pre-B cells; in words) was “increase in cells in G0/G1” and the “cells in S-phase” value (wild type pre-B cells; in words) was “reduction of cells in S-phase”.
